Values joined by “and” are separate entries in the source; they are usually repeats but may differ in a detail not shown here. Identical values can stand only once.
What was measured:
[1] = system: endothelial cell membrane; set-up: method as in PMID 22387282; conditions: cited from earlier work
[2] = Urinary excretion after intravenous C3G; format: in vivo, Wistar rats
From the text: (§1) Twenty-two male Wistar rats (Rattus Norvegicus, Harlan Italy S.r.l.), of same age (15 weeks), 293–390 g of body weight, were used. The rats were randomly divided into 5 groups, according to the time that elapsed after intravenous administration of the test compound, and one control group. Each time point was represented by four biological replicates. All animals were allowed to acclimate to the animal facility of the University of Trieste for at least 2 week before studies were initiated. The experimental design was vetted and approved by the bioethical committee of the University of Trieste (internal code 140PAS14), according to the provisions of the European Community Council Directive 2010/63/EU[39]. The methods were carried out in accordance with the approved guidelines. The animals (n = 22) were maintained in cages in a room at 23 ± 2 °C, 50–60% humidity with a 12-hour light-dark cycle. The night before the experiment, food was withdrawn from the cages but water was given ad libitum. On the day of the experiment, the rats were anesthetized with intra-peritoneal administration of tiletamine/zolazepam (1:1, 25 mg/kg body weight) and xylazine (10 mg/kg body weight). During anaesthesia (10 min in all cases), the heart and ventilation rate were monitored. The rats were placed on their backs, with the ventral side up and with the legs spread separately on a thermo-isolated support. The penis was extruded by sliding the prepuce downwards. The dorsal penis vein was then seen along both sides of the penis and exactly 10 min after anaesthesia 0.2 mL PBS without (control group) or with (treated group) 668 nmol cyanidin 3-glucoside (C3G) in PBS was injected using a 24-G hypodermic needle. Then the injection site was pressed with a swab for a few seconds, and the glans was encouraged to retract to prevent further bleeding. One min before sacrificing the rats, sodium heparin (0.1 ml, 500 IU) was injected again into the dorsal penis vein, exposed in the same way. […] Blood draining and excision of the organs were carried out according to the literature. In detail, blood was collected from the neck of rats hold upside down, immediately after their decapitation, which happened at the time points sharp. Exsanguination took 5 seconds; laparotomy and excision of the liver and the kidneys took 5 more seconds. The post-decapitation procedures were standardised. Urine was collected through the urinary bladder with a syringe before decapitation. Kidneys, liver and brain were washed with mQ water, immediately frozen in liquid nitrogen and stored at −80 °C.
(§2) Immediately after sampling, 5 mL of blood were transferred into ice-cold (−20 °C), deoxygenated aqueous 95% methanol in a ratio 1:9 (v/v). The urine was weighted and transferred into ice-cold, deoxygenated aqueous 95% methanol at a ratio of 1:9 (w/v). Frozen kidneys, liver and brain were grounded under cryogenic conditions (−196 °C) to 5 μm particles in a CryoMill (Retsch, Germany), using a single 25 mm i. d. steel ball (30 seconds, 25/sec frequency). The pulverized tissue was rapidly transferred (without thawing) into ice-cold, deoxygenated aqueous 95% methanol at a ratio of 1:9 (w/v). Cinnamic acid-d5, as internal standard, was dissolved in the aqueous methanol at concentration of 0.1 mg/L for the monitoring of the extraction protocol in biofluids and tissues.
(§3) All samples were extracted with an orbital shaker for 10 min at room temperature. The methanol extracts were then centrifuged for 5 min at 3600 rpm at 4 °C, decanted under a stream of nitrogen in 50 mL dark glass vessels and stored at −80 °C. Clean-up of extracted samples in methanol was performed by solid phase extraction (SPE), as previously described. Briefly, 5 mL of extracted samples were evaporated on a rotary evaporator and reconstituted in 10 mL of acidified water. Anthocyanins were extracted by solid-phase adsorption onto a hydrophobic matrix (Sep-Pak C18, 0.35 g, Waters, Milford, MA). […]

[3] = Kidney concentrations and tissue pharmacokinetics after intravenous C3G; format: in vivo, Wistar rats
From the text: as §1, §2, §3

[4] = Liver concentrations and tissue pharmacokinetics after intravenous C3G; format: in vivo, Wistar rats
From the text: as §1, §2, §3

[5] = Brain concentrations and tissue pharmacokinetics after intravenous C3G; format: in vivo, Wistar rats
From the text: as §1, §2, §3

[6] = 0.25 min after i.v. 668 nmol C3G, mean ± SEM n=4

SMILES: OC[C@H]1O[C@@H](Oc2cc3c(O)cc(O)cc3[o+]c2-c2ccc(O)c(O)c2)[C@H](O)[C@@H](O)[C@@H]1O [C3G, Cyanidin-3-O-β-glucoside]
- Time frame to pass the endothelial cell membrane [1]: < 1 min
- Urine concentration ([2]; 0.25 min after i.v. 668 nmol C3G): 0.02 ± 0.01 nmol/g
- Urine concentration ([2]; 2 min after i.v. 668 nmol C3G): 2.69 ± 0.82 nmol/g
- Urine concentration ([2]; 5 min after i.v. 668 nmol C3G): 20.20 ± 2.61 nmol/g
- Injected dose recovered in urine ([2]; 5 min after the injection): 15%
- Urine concentration ([2]; 15 min after i.v. 668 nmol C3G): 11.95 ± 6.53 nmol/g
- Urine concentration ([2]; 20 min after i.v. 668 nmol C3G): 5.66 ± 1.31 nmol/g
- Amounts found in kidneys (range over sampling times) ([3]; 0.25–20 min after i.v. 668 nmol C3G): 0.44 to 1.69 nmol/g
- Mean concentration in kidneys [3, 6]: 1.69 ± 0.47 nmol/g
- Mean concentration in kidneys ([3]; 2 min after i.v. 668 nmol C3G): 1.40 ± 0.16 nmol/g
- Mean concentration in kidneys ([3]; 5 min after i.v. 668 nmol C3G): 0.58 ± 0.08 nmol/g
- Mean concentration in kidneys ([3]; 15 min after i.v. 668 nmol C3G): 0.57 ± 0.17 nmol/g
- Mean concentration in kidneys ([3]; 20 min after i.v. 668 nmol C3G): 0.44 ± 0.04 nmol/g
- MTTK (Mean Transit time in kidneys) ([3]; kidneys): 8.54 min
- AUC0-t ([3]; kidneys, i.v. 668 nmol C3G): 14.3 nmol·min/g and 14.32 nmol·min/g
- half-life ([3]; male, Wistar, rat, kidney, iv, 668 nmol, kidneys): 11.7 min
- Mean concentration in liver [4, 6]: 56.61 ± 11.79 pmol/g
- Mean concentration in liver ([4]; 2 min after i.v. 668 nmol C3G): 19.22 ± 1.99 pmol/g
- Mean concentration in liver ([4]; 5 min after i.v. 668 nmol C3G): 20.91 ± 2.61 pmol/g
- Mean concentration in liver ([4]; 15 min after i.v. 668 nmol C3G): 11.02 ± 2.24 pmol/g
- Mean concentration in liver ([4]; 20 min after i.v. 668 nmol C3G): 5.54 ± 0.33 pmol/g
- MTTL (Mean Transit Time in the liver) ([4]; liver): 1.43 min
- AUC0-t ([4]; liver, i.v. 668 nmol C3G): 345.3 pmol·min/g and 345.29 pmol·min/g
- half-life ([4]; male, Wistar, rat, liver, iv, 668 nmol, read-out: Half-life): 8.15 min
- Mean concentration in brain ([5]; 0.25 min after i.v. 668 nmol C3G, mean ± SEM n=4, corrected for residual blood): 40.46 ± 9.67 pmol/g
- Mean concentration in brain ([5]; 2 min after i.v. 668 nmol C3G): 7.48 ± 0.79 pmol/g
- Mean concentration in brain ([5]; 5 min after i.v. 668 nmol C3G): 7.05 ± 0.55 pmol/g
- Mean concentration in brain ([5]; 15 min after i.v. 668 nmol C3G): 2.18 ± 0.58 pmol/g
- Mean concentration in brain ([5]; 20 min after i.v. 668 nmol C3G): 2.21 ± 0.44 pmol/g
- MTTB (Mean Transit Time in the brain) ([5]; brain): 0.43 min
- AUC0-t ([5]; brain, i.v. 668 nmol C3G): 119.9 pmol·min/g and 119.89 pmol·min/g
- half-life ([5]; male, Wistar, rat, brain, iv, 668 nmol): 8.8 min
- concentration at 15 sec ([5]; male, Wistar, rat, brain, iv, 668 nmol, 15 sec after i.v., read-out: Corresponding brain concentration assuming free diffusion in a water compartment): ~0.05 µM
